Test results: patent publication US12343416B2, “Skin engaging member for razor cartridge comprising skin active ingredient” (BIC-VIOLEX S.A., priority 2019, dated 2025)

Experiments:
[1] = format: physicochemical
Description: Again, without being bound to theory, one could explain this thermostability by the low volatility related with high molecular weight. Indeed, Glycyrrhizic acid and its salts are widely used in food applications that are intended to be baked and keeping the sweetness.

[2] = Retention of skin active ingredient after extrusion of the skin engaging member (process tolerance / thermal stability); format: physicochemical; settings: initial concentration 1% in HIPS/PEG/BHT blend; heated to melt and extruded via rotating screw; 150° C. to 300° C., 250-2000 bar
Description: Therefore and more particularly, throughout the present description and claims, the expression “thermally tolerant” or “thermally stable” or “process tolerant” should thus be understood that the skin engaging member retains the contained skin active ingredient, after a thermal treatment/processing at about 150 to 300° C., from 2 to 15 minutes and pressure conditions between 250-2000 bar, in processes such as extrusion or injection or injection-molding, in concentration that is detected quantitatively at the end product/article, by applying analytical chemistry methods, such as liquid chromatography. In embodiments that the skin engaging member comprises skin active ingredient capable of treating and/or preventing skin redness or skin irritation and being selected from the group consisting of a) at least one terpenic acid derivative, b) strombine or salt of strombine, combined with a clay, and c) mixtures thereof, the concentration of the skin active ingredient retained after the thermal treatment/processing is about 0.001-100%, particularly 20-80%, more particularly 20-70%, of the initial quantity of skin active ingredient added. […]
The quantity of the skin active ingredient in the skin engaging member can be measured/evaluated by (chromatographic) methods known to the skilled person depending on the nature of the active ingredient. […]

| Compound | heat stability/tolerance [1] | reduction of the amount of skin active ingredient compared to the initial concentration, measured in the final skin engaging member [2] [%] |
| --- | --- | --- |
| CC1(C)[C@@H](O[C@H]2O[C@H](C(=O)O)[C@@H](O)[C@H](O)[C@H]2O[C@@H]2O[C@H](C(=O)O)[C@@H](O)[C@H](O)[C@H]2O)CC[C@]2(C)[C@H]3C(=O)C=C4[C@@H]5C[C@@](C)(C(=O)O)CC[C@]5(C)CC[C@@]4(C)[C@]3(C)CC[C@@H]12 [Glycyrrhizic acid, (3-beta, 20-beta)-20-carboxy-11-oxo-30-norolean-12-en-β-yl 2-O-beta-D-glucopyranuronosyl-alpha-D-glucopyranosiduronic] | heat stable/tolerant | – |
| Dipotassium Glycyrrhizinate/Glycyrrhizate | heat stable/tolerant | 30 |
| C[C@H]1[C@H](C)CC[C@]2(C)CC[C@]3(C)C(=CC[C@@H]4[C@@]5(C)CC[C@@H](O)[C@](C)(C(=O)O)[C@@H]5CC[C@]43C)[C@H]12 [boswellic acid] | – | 52.2 |
